Reference: patent publication US20120115871A1, “METHOD OF TREATMENT OF DEPRESSION” (Supemus Pharmaceuticals, Inc, priority 2009, published 2012)

Key:
[1] = background statement; cited from earlier work
5-HT7 (h) = 5-HT7 (h) (Homo sapiens, UniProt P34969); conditions: range of concentrations; FIG. 2
Description: The apparent dissociation constants for antagonists Kb were calculated using the modified Cheng Prusoff equation.

[2] = target: noradrenergic reuptake transporters (Homo sapiens, UniProt P23975); conditions: Tatsumi et al [1997]; cited from earlier work
5-HT5A (h) = 5-HT5A (h) (Homo sapiens, UniProt P47898); experiment: biochemical; conditions: read-out: % Inhib.
From the text: (§1) Briefly, recombinant 5-HT7 receptors were expressed in a CHO cell line. The receptors were then saturated with a tritiated receptor-specific ligand at concentrations known to be saturating.

5-HT4e (h) = 5-HT4e (h) (Homo sapiens, UniProt Q13639); experiment: biochemical; conditions: read-out: % Inhib.
From the text: as §1

5-HT1D = 5-HT1D (Rattus norvegicus, UniProt P28565); experiment: biochemical; conditions: read-out: % Inhib.
From the text: as §1

5-HT6 (h) = 5-HT6 (h) (Homo sapiens, UniProt P50406); experiment: biochemical; conditions: read-out: % Inhib.
From the text: as §1

5-HT3 (h) = 5-HT3 (h) (Homo sapiens, UniProt P46098); experiment: biochemical; conditions: read-out: % Inhib.
From the text: as §1

[3] = target: serotonin reuptake inhibitor (Homo sapiens, UniProt P31645); conditions: very weak activity; Tatsumi et al [1997]; cited from earlier work
Chain of serotonin reuptake inhibitor (P31645 whole entry): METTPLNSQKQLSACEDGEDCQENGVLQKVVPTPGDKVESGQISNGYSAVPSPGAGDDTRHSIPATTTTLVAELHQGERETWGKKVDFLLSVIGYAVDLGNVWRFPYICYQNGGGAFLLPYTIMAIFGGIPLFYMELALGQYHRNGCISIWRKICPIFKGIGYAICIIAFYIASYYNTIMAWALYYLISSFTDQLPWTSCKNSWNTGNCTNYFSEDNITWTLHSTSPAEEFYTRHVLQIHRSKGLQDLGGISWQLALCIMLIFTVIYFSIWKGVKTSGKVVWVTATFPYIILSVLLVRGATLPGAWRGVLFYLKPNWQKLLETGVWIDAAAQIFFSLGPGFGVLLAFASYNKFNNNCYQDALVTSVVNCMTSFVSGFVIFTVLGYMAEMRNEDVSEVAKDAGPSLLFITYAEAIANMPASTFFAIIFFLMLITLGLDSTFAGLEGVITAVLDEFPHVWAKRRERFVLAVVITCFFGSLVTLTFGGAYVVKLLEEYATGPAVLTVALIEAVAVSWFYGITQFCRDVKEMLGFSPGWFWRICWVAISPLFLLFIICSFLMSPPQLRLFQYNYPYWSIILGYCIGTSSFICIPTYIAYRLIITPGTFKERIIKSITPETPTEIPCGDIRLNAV

Chain of 5-HT7 (h) (P34969 whole entry): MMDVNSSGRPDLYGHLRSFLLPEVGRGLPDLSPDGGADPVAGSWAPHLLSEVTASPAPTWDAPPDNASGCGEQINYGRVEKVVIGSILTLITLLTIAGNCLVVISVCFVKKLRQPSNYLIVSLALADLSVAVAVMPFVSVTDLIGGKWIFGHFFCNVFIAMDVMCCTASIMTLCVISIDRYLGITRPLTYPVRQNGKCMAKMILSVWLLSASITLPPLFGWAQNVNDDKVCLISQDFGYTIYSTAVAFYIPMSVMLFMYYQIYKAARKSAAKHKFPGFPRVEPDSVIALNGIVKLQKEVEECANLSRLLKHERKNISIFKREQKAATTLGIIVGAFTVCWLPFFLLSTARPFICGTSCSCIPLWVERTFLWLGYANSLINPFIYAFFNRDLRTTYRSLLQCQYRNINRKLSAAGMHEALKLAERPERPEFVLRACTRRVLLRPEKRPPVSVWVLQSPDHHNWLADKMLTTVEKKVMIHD
Chain of 5-HT4e (h) (Q13639 1-378 isoform Q13639-5): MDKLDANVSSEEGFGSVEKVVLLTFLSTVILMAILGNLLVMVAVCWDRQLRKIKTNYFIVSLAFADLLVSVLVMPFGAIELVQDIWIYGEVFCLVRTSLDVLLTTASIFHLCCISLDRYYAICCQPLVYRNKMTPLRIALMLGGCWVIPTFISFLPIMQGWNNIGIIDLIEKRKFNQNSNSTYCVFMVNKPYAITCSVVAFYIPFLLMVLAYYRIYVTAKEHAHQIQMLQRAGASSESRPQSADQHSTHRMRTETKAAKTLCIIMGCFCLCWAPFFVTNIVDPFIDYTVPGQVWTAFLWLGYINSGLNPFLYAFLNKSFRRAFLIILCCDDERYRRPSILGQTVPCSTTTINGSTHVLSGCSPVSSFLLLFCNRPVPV
Chain of 5-HT5A (h) (P47898 whole entry): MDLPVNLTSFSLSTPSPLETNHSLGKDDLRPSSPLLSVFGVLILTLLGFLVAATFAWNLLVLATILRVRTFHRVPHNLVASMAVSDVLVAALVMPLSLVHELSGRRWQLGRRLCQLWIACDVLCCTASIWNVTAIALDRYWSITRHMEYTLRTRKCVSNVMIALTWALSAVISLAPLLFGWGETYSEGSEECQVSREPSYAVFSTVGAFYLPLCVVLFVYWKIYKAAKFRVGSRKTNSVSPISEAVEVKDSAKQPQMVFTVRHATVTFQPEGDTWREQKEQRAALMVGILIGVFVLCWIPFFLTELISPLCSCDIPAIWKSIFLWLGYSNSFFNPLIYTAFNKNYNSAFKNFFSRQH
Chain of 5-HT3 (h) (P46098 24-478): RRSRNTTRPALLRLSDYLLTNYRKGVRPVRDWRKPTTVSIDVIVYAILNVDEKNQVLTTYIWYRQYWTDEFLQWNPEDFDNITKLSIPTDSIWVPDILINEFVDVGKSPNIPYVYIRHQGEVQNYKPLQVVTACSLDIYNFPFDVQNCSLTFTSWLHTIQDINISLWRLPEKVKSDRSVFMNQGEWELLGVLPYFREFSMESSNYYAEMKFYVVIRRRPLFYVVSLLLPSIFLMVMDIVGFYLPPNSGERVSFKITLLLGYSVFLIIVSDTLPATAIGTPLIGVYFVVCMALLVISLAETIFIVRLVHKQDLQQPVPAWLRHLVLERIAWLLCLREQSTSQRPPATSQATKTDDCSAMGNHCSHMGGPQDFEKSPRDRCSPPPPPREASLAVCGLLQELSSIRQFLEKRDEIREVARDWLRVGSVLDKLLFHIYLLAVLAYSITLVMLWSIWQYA
Chain of 5-HT1D (P28565 whole entry): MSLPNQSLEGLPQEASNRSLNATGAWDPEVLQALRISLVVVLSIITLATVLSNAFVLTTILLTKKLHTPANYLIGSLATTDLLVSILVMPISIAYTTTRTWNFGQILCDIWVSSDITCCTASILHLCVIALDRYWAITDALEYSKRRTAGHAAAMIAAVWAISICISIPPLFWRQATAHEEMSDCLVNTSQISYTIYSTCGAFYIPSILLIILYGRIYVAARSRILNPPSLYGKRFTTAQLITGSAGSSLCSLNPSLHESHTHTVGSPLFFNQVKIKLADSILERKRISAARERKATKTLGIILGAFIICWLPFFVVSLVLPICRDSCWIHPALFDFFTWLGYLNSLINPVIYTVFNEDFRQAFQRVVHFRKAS
Chain of noradrenergic reuptake transporters (P23975 whole entry): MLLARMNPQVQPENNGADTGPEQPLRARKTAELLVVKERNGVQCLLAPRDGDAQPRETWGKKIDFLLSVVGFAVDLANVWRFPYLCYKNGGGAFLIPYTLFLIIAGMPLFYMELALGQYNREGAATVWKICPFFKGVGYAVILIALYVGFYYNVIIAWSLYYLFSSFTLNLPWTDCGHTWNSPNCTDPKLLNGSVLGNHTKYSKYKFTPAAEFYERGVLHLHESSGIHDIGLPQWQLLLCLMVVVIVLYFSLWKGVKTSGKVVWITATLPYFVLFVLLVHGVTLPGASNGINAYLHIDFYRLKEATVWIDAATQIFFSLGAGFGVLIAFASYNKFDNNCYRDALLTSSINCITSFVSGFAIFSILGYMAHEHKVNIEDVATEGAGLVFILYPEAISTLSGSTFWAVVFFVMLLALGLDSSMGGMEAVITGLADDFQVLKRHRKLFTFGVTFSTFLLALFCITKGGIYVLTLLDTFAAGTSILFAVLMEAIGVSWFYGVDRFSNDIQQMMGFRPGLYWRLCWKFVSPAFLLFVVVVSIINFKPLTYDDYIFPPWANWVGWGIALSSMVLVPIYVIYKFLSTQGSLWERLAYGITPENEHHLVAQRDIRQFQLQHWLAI
Chain of 5-HT6 (h) (P50406 whole entry): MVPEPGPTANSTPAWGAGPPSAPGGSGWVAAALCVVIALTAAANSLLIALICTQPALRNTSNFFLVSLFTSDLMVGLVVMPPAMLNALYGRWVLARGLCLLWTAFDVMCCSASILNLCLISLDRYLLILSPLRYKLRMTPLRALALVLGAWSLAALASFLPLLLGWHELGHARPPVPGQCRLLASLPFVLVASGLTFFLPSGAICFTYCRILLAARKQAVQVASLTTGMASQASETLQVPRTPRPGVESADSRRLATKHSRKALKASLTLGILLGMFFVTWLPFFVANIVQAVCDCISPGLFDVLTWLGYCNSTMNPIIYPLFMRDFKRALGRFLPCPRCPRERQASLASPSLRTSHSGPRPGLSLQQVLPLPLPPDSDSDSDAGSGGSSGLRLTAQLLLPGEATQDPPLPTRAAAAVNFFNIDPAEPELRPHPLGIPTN

| SMILES | pharmacological activity relative to R(+)-isomer [1] | agonist effect (cAMP response) (5-HT7 (h)) | inhibition of noradrenergic reuptake transporters [2] | inhibition at 0.001 µM (5-HT5A (h)) | inhibition at 0.0003 µM (5-HT4e (h)) | inhibition at 0.001 µM (5-HT1D) | inhibition at 0.002 µM (5-HT6 (h)) | inhibition at 0.0005 µM (5-HT3 (h)) | activity at the serotonin reuptake inhibitor [3] |
| --- | --- | --- | --- | --- | --- | --- | --- | --- | --- |
| CCOc1ccccc1OC[C@@H]1CNCCO1 (single isomer, unassigned) [S(−)-isomer] | five times more pharmacologically active than the R(+)-isomer |  |  |  |  |  |  |  |  |
| CCOc1ccccc1OCC1CNCCO1 (racemic) [viloxazine, Viloxazine] |  | no measurable response | 155 nM | 15% | 16% | 18% | 6% | 18% | 17.3 μm |
